For test [1], the system named is CPS1. The test can be described thus: HSP90 or HSP70 inhibitors in primary human hepatocytes, CPS1 mRNA. As to conditions: hepatocytes from Donor B, normalized to B2M. The test is classed as cell-based. On the procedure:
(§1) Additional small molecules that inhibit HSP90 or HSP70 were tested in primary human hepatocytes as described in Example 2. HSP90 or HSP70 inhibitors were tested in triplicate at 0.3 μM and 3 μM. The results are shown as the fold change (mRNA FC) in the mRNA levels of OTC and CPS1 genes after treatment compared to an untreated control (DMSO) and the standard deviation (SD). In addition, a dose titration experiment was performed with selected HSP90 inhibitors. Hepatocytes were incubated with increasing concentrations of HSP90 inhibitors and the changes in OTC and CPS1 expression quantified as previously described.
(§2) HSP90 and HSP70 inhibitors were compared to confirm the role of HSP90 in modulating OTC and CPS1 expression. Hepatocytes from Donor B were incubated with various HSP90 inhibitors or an HSP70 inhibitor, Pifithrin-μ, and then harvested for mRNA quantification. OTC and CPS1 mRNA levels were normalized to B2M.

Test [2] deals with chromatin domain upstream of the OTC gene. The test can be described thus: ATAC-seq of the OTC insulated neighborhood in inhibitor-treated hepatocytes. As to conditions: 17 hours of inhibitor treatment.
Method: Hepatocytes were seeded overnight, then the serum and other factors were removed. After 2-3 hours, the cells were treated with the compound and incubated overnight. The cells were harvested and the nuclei were prepared for the transposition reaction. […] After 9-12 cycles of PCR amplification, libraries were sequenced on an Illumina HiSeq 2000. PCR was performed using barcoded primers with extension at 72° C. for 5 minutes, PCR, then the final PCR product was sequenced.
All obtained reads from each sample were trimmed using trim galore 0.4.1 requiring Phred score ≥20 and read length ≥30 for data analysis. The trimmed reads were mapped against the human genome (hg19 build) using Bowtie2 (version 2.2.9) with the parameters: -t -q -N 1 -L 25 -X 2000 no-mixed no-discordant. All unmapped reads, non-uniquely mapped reads and PCR duplicates were removed. All the ATAC-seq peaks were called using MACS2 with the parameters --nolambda -nomodel -q 0.01 --SPMR. The ATAC-seq signal was visualized in the UCSC genome browser. ATAC-seq peaks that were at least 2 kb away from annotated promoters (RefSeq, Ensemble and UCSC Known Gene databases combined) were selected as distal ATAC-seq peaks.
The ATAC-seq experiment was done in triplicate.
The test system of test [3] is CPS1. The test can be described thus: HSP90 inhibitor dose titration in hepatocytes of donors A and B, CPS1 mRNA normalized to B2M. The test is classed as cell-based, human. The note with it: 18 hours. On the procedure: as §1
(§3) Hepatocytes from two different donors (A and B) were incubated with the various concentrations of HSP90 inhibitors for 18 hours and harvested for mRNA analysis. OTC and CPS1 mRNA were normalized to house keeping gene B2M gene expression.

For a further test, the system named is Hep3B cells. The test can be described thus: Urea production in Hep3B cells, Blood Urea Nitrogen Assay Kit on spent media. The test is classed as cell-based, human. The note with it: increasing concentrations from 0.03 μM.
The test system of test [4] is NAGS. In words: Urea cycle gene expression in Hep3B cells, NAGS. Format: cell-based, human. The note with it: FIG. 31B.
From the text: (§5) OTC mRNA levels were not able to be determined due to a technical problem of OTC gene quantification in Hep3B cells.
The next test has as its system HSP90. As to conditions: cited from earlier work.
For test [5], the system named is ARG1. In words: Urea cycle gene expression in Hep3B cells, ARG1. Format: cell-based, human. The note with it: FIG. 31B.
From the text: as §5
Test [6] relates to OTC. The test can be described thus: HSP90 or HSP70 inhibitors in primary human hepatocytes, OTC mRNA. Format: cell-based. As to conditions: hepatocytes from Donor B, normalized to B2M. The method, then:
as §1, §2

In test [7] the test system is OTC. The test can be described thus: HSP90 inhibitor dose titration in hepatocytes of donors A and B, OTC mRNA normalized to B2M. The test is classed as cell-based, human. As to conditions: 18 hours. The method, then: as §1, §3
Test [8] relates to CPS1. The test can be described thus: Urea cycle gene expression in Hep3B cells, CPS1. The test is classed as cell-based, human. As to conditions: FIG. 31B.
From the text: as §5
Test [9] deals with ASS1. In words: Urea cycle gene expression in Hep3B cells, ASS1. Format: cell-based, human. As to conditions: FIG. 31B.
From the text: as §5
The nature of test [10]: EC144 in C57/B16 mice, serum urea levels (Blood Urea Nitrogen Assay Kit). Format: in vivo, mouse. The note with it: 5 mg/kg i.p. once daily for 4 days, 5 h, 7 h or 9 h post-dose, vs vehicle. The method, then:
(§4) The in vivo effect of EC144 was assessed.
Serum urea levels were measured using the Blood Urea Nitrogen Assay Kit (Invitrogen, Cat #EIABUN) per manufacturer's instructions. The data was plotted in GraphPad and statistical significance of the data sets determined using the Holm-Sidak method for multiple comparisons (α=0.05).

In test [11] the test system is Ass1. The test can be described thus: EC144 in C57/B16 mice, liver Ass1 mRNA by qRT-PCR. The test is classed as in vivo, mouse. The note with it: 5 mg/kg i.p. once daily for 4 days, FIG. 32. The method, then:
as §4

The test system of test [12] is Arg1. In words: EC144 in C57/B16 mice, liver Arg1 mRNA by qRT-PCR. Format: in vivo, mouse. As to conditions: 5 mg/kg i.p. once daily for 4 days, FIG. 32. On the procedure: as §4
Test [13] in a line: EC144 in C57/B16 mice, liver As1 mRNA by qRT-PCR. The test is classed as in vivo, mouse. The note with it: 5 mg/kg i.p. once daily for 4 days, FIG. 32. On the procedure:
as §4

Test [14] relates to Cps1. The test can be described thus: EC144 in C57/B16 mice, liver Cps1 mRNA by qRT-PCR. Format: in vivo, mouse. On the procedure:
as §4

Test [15] relates to Nags. The note with it: mice, 5 mg/kg i.p. once daily for 4 days, FIG. 32.
Method: After the final dose, the animals were sacrificed at 5 h, 7 h or 9 h post-dose and their livers and serum collected and flash frozen. The livers were processed and total RNA extracted. mRNA levels for Otc, Cps1, Ass1, As1, Arg1 and Nags were measured using qRT-PCR relative to the geometric mean of the expression levels of several housekeeping genes (Actb, B2m, Ppia, Gapdh, Hprt, Gusb).
The subject of test [16] is Otc. In words: EC144 in C57/B16 mice, liver Otc mRNA by qRT-PCR. The test is classed as in vivo, mouse. On the procedure:
as §4

Where [17] appears, read: mice, 5 mg/kg i.p. once daily for 4 days, FIG. 32.

Results on two molecules are retold here after US11266655B2, “Methods and compositions for treating urea cycle disorders” (Camp4 Therapeutics Corporation, priority 2019, dated 2022).

“Also recorded” adds a separate entry of the source.

Take `COc1c(C)cnc(Cn2cnc3c(Cl)nc(N)nc32)c1C` [BIIB021]: the “CPS1 Expression mRNA FC” value was 0.67 in the test with CPS1 [1] (0.3 uM) and 2.18 with CPS1 [1] (3 uM). Also, in test [2], the “accessibility of previously available chromatin upstream of the OTC gene (ATAC-seq)” value is given as “increase in accessibility”. Also, the “newly accessible chromatin domain upstream of the OTC gene (ATAC-seq)” value in test [2] is reported as “newly accessible chromatin domain”. In addition, the “CPS1 mRNA FC, Donor A” value with CPS1 [3] (0.03 uM) is on record as 0.98; in the test on CPS1 [3] (0.1 uM) it was 1.40; in the test with CPS1 [3] (0.3 uM), 1.54; in the test with CPS1 [3] (1 uM), 2.75; in the test on CPS1 [3] (3 uM), 4.27; with CPS1 [3] (10 uM), 6.41. In addition, the “CPS1 mRNA FC, Donor B” value came to 1.05 in the test on CPS1 [3] (0.03 uM); 1.93 in the test with CPS1 [3] (0.1 uM); 1.95 in the test on CPS1 [3] (0.3 uM); 1.37 in the test on CPS1 [3] (1 uM); 1.13 with CPS1 [3] (3 uM); 1.83 with CPS1 [3] (10 uM). In addition, the urea production entry with Hep3B cells is recorded as “dose-dependent increase; also recorded: increases”. In addition, the “NAGS expression in Hep3B cells” value with NAGS [4] is listed as “Increases”. The EC50 in the test with HSP90 was […]. Further, the Ki at HSP90 was […]. The “ARG1 expression in Hep3B cells” value in the test on ARG1 [5] is recorded as “Increases”. For the same molecule, the “OTC Expression mRNA FC” value in the test on OTC [6] (0.3 uM) was determined as 0.95; with OTC [6] (3 uM), 3.12. The “OTC mRNA FC, Donor A” value in the test on OTC [7] (0.03 uM) stood at 0.84; in the test on OTC [7] (0.1 uM) it was 1.13; with OTC [7] (0.3 uM), 2.46; in the test with OTC [7] (1 uM) it was 5.86; with OTC [7] (3 uM) it was 6.12; in the test on OTC [7] (10 uM), 7.61. The “OTC mRNA FC, Donor B” value in the test with OTC [7] (0.03 uM) amounted to 1.24; with OTC [7] (0.1 uM), 4.23; in the test on OTC [7] (0.3 uM) it was 15.30; in the test with OTC [7] (1 uM), 9.49; in the test on OTC [7] (3 uM), 6.59; with OTC [7] (10 uM) it was 7.17. Moreover, in the test with CPS1 [8], the “CPS1 expression in Hep3B cells” value was “Increases”. In the test on ASS1 [9], the “ASS1 expression in Hep3B cells” value is “Increases”.
With `COc1c(C)cnc(Cn2cc(C#CCC(C)(C)O)c3c(Cl)nc(N)nc32)c1C` [EC144], the serum urea levels entry in test [10] was “increased”. The “Ass1 expression in vivo” value with Ass1 [11] is on record as “increased”. In addition, in the test with Arg1 [12], the “Arg1 expression in vivo” value is recorded as “increased”. For the same molecule, the “As1 expression in vivo” value in test [13] is “increased”. Also, the “Cps1 expression over time” value in the test with Cps1 [14] (9 h after administration as compared to 5 h) is “greater expression”. Besides, the “Cps1 expression in vivo” value is “increased” with Cps1 [14] (at 5 h, 7 h, and 9 h after administration, FIG. 33B); “increased” with Cps1 [14] (setting [17]). Moreover, in the test with Nags [15], the “Nags expression in vivo” value is recorded as “increased”. For the same molecule, the “Otc expression in vivo” value in the test with Otc [16] (5 h after administration, FIG. 33A) is “increased”; in the test with Otc [16] (setting [17]) it was “increased”.
